Source: PMC3844920 (British Journal of Cancer, 2013)

Key:
[1] = biological target: FAK (focal adhesion kinase) (Homo sapiens, UniProt Q05397); test: in vitro kinase assay, Kinase-Glo luminescence; format: biochemical; conditions: read-out: FAK inhibition 1 μM ^a
Pyk2 = Pyk2 (Homo sapiens, UniProt Q14289); test: in vitro kinase assay; format: biochemical; conditions: read-out: Pyk2 inhibition 1 μM ^a
Sequence of Pyk2 (Q14289 whole entry): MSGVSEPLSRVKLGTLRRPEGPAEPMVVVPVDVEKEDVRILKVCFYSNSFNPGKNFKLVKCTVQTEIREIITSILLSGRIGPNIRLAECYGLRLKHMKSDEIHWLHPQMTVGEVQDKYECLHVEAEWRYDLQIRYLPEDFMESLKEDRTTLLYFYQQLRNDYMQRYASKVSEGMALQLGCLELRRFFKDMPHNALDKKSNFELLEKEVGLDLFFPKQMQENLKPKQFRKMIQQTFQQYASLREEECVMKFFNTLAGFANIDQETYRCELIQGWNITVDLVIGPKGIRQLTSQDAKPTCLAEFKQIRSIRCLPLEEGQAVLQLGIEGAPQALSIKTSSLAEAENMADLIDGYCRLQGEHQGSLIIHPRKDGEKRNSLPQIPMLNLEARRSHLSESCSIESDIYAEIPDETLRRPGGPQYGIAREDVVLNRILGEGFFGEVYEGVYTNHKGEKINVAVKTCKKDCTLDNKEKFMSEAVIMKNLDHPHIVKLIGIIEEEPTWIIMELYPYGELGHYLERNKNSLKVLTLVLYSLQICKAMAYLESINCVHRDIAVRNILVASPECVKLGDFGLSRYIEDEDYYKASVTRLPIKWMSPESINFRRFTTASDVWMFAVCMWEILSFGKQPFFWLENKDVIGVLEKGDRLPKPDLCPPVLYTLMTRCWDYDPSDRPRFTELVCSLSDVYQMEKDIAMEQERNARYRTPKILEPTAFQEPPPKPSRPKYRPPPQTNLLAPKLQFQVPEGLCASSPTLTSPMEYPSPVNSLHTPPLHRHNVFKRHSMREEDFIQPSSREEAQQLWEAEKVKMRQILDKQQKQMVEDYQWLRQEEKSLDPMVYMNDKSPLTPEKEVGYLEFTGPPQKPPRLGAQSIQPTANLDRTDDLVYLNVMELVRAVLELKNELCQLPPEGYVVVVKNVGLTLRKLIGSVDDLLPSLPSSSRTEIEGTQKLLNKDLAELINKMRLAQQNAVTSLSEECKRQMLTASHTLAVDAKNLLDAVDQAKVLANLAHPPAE

Sequence of FAK (focal adhesion kinase) (Q05397 2-1052): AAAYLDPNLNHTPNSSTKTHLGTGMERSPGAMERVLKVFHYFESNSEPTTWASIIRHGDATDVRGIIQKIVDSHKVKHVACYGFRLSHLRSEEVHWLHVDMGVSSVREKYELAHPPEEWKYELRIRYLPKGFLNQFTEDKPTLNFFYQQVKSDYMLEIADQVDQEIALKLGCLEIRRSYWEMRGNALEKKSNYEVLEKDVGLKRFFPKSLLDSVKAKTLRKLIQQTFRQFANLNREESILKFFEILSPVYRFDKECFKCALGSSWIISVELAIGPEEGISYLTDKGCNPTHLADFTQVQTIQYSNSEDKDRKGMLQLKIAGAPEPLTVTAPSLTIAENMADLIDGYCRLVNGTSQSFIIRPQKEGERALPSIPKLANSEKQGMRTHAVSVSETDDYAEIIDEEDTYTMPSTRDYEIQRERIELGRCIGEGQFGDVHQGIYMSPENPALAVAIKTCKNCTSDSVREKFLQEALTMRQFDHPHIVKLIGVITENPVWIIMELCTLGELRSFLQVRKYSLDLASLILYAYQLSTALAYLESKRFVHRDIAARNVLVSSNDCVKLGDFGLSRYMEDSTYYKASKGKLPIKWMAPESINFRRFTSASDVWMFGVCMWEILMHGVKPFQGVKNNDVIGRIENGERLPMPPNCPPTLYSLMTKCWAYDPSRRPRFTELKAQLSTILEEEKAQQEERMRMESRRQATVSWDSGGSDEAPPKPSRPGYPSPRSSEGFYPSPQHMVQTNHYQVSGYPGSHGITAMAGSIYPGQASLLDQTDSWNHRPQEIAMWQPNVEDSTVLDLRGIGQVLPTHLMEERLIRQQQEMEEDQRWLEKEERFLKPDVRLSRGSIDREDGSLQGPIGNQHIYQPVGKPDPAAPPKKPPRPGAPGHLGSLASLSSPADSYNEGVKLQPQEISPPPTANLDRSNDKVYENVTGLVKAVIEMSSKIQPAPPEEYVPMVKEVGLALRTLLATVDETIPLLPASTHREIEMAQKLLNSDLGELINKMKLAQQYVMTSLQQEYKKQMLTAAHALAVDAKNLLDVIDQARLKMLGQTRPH

- inhibition at 1 µM [1]: 70%
- inhibition at 1 µM (Pyk2): 82%
SMILES: c1nc2nc(Nc3ccc(N4CCOCC4)cc3)nc(NC3CCCCC3)c2[nH]1 [reversine]
